The values below come from ChEMBL document CHEMBL1649553, “Characterization of ermA in macrolide-susceptible strains of methicillin-resistant Staphylococcus aureus” (2009).

The test concerns Staphylococcus aureus. Put plainly: Antibacterial activity against methicillin-resistant Staphylococcus aureus. Format: functional.

Values after ≈ are worked out from the molar mass of the structure shown.

`CC[C@H]1OC(=O)[C@H](C)[C@@H](O[C@H]2C[C@@](C)(OC)[C@@H](O)[C@H](C)O2)[C@H](C)[C@@H](O[C@@H]2O[C@H](C)C[C@H](N(C)C)[C@H]2O)[C@](C)(O)C[C@@H](C)C(=O)[C@H](C)[C@@H](O)[C@]1(C)O` [ERYTHROMYCIN] came in with an MIC of 0.25 µg/mL (≈ 0.341 µM).

`CCC[C@@H]1C[C@@H](C(=O)N[C@@H]([C@H]2O[C@H](SC)[C@H](O)[C@@H](O)[C@H]2O)[C@H](C)Cl)N(C)C1` [CLINDAMYCIN] came in with an MIC of 0.5 µg/mL (≈ 1.18 µM).
